US20100143972A1, “Method of Making Cyclic Polypeptides with Inteins” (priority 2006, published 2010)
“Also recorded” adds a separate entry of the source. No end group written: not given here.

Assays:
[1] = tested on: Strain AH429 (Agr-I reporter); test: AIP inhibition assay, Agr-I reporter (RNAIII promoter driving GFP); type: cell-based, S. aureus; settings: sample diluted 20-fold into AH429 culture; GFP compared to TSB control
Description: (§1) AIP inhibition assays. For monitoring inhibition of the Agr system, an overnight culture of the appropriate reporter strain was inoculated into TSB with chloramphenicol and grown to an optical density of 0.05 (0.25 for AH431) at 600 nm. In triplicate, 475 μl of reporter culture was aliquoted into test tubes (13×100 mm) and 25 μl of spent media or intein-generated AIP was added to each tube. As controls, separate tubes were prepared with the addition of either 25 μl of TSB or chitin elution buffer. The tubes were shaken at 250 rpm at 37° C. and assayed at the following times unless otherwise indicated: AH429, 12 hrs; AH430, 3 hrs; AH431, 4 hrs. Both cell density (optical density, 595 nm) and GFP fluorescence (excitation at 485 nm, emission at 535 nm) was measured in a Tecan GENios microtiter plate reader (Research Triangle Park, N.C.) by removing 100 μl from each tube and assaying in a microtiter plate (Corning 3606 plates). Fluorescence is reported as an average of the three samples. Control AIP samples were prepared from the appropriate S. aureus producing strains. Each strain was grown in TSB until an optical density at 600 nm of ˜2.0-2.5, the cells were pelleted, and the supernatant was filtered through a 0.2 micro syringe filter. The filtered supernatants were stored at 4° C. and used within 48 hrs.
(§2) Agr reporter strains. […]

AH430 (Agr-II reporter) = type: cell-based, S. aureus
Description: as §1
The intein fusions were kept on resin in the presence of buffer with TCEP, a non-thiol reducing agent, added to maintain DnaB activity and keep the AIP cysteine reduced. Following incubation, the resin buffer was eluted and tested for biological activity. The bioassay is based on the observation that there are three inhibition classes among S. aureus Agr systems (FIG. 1). An S. aureus Agr-II reporter strain, AH430, has a plasmid with the RNAIII transcript promoter driving GFP expression.
Agr reporter strains. To test the iAIPs, reporter strains had to be developed for each of the Agr-I, Agr-II, and Agr-III systems. […]

[2] = tested on: Strain AH431 (Agr-III reporter); test: AIP inhibition assay, Agr-III reporter (RNAIII promoter driving GFP); type: cell-based, S. aureus; settings: sample diluted 20-fold into AH431 culture
Description: as §1, §2

[3] = tested on: S. aureus Agr-I (AH462) reporter strain; test: AIP activation assay, Agr-I reporter; type: cell-based; settings: 50 nM iAIP, TSB with 0.2% glucose, AH462, GFP
Description: (§3) AIP activation assays. Overnight cultures of S. aureus reporter strains were grown in TSB and sub-cultured 1:50 into TSB+0.2% glucose supplemented with indicated AIP (final volume […] concentration 50 nM). Cultures were grown in test tubes (13×100 mm) at 37° C. shaking at 250 rpm. Cell density and fluorescence was monitored using a Tecan GENios microtiter plate reader at 4, 6, 8, and 10 hours after inoculation.
(§4) In published reports, the addition of AIP samples results in a significant increase in the RNAIII levels (Ji et al., 1997). The inventors reasoned that the S. aureus media conditions are limiting the Agr response, allowing detection of AIP activation. Glucose is a common media component, and growth on glucose is known to repress RNAIII transcription (Regassa et al., 1992). When the reporter strains were grown in TSB with 0.2% glucose, the inventors observed an approximately 70% drop in GFP expression (data not shown). The addition of AIP to the glucose treated strains restores the maximal levels of RNAIII, creating a simple test for AIP activation.

[4] = tested on: S. aureus Agr-II (AH430) reporter strain; test: AIP activation assay, Agr-II reporter; type: cell-based; settings: 50 nM iAIP, TSB with 0.2% glucose, AH430, GFP
Description: as §3, §4

Substance | inhibition of quorum-sensing (GFP fluorescence) in Agr-I reporter strain [1] | inhibition of quorum-sensing (GFP fluorescence) in Agr-II reporter strain (AH430 (Agr-II reporter); sample diluted 20-fold into AH430 culture, untreated sample) | Agr-II inhibition after hydroxylamine treatment of the sample (AH430 (Agr-II reporter); sample treated with hydroxylamine, opening the thiolactone ring, AH430) | Agr-II inhibition after base treatment of the sample (AH430 (Agr-II reporter); sample treated with sodium hydroxide base to open the thiolactone ring, neutralized with acid, AH430) | inhibition of quorum-sensing (GFP fluorescence) in Agr-III reporter strain [2] | -fold activation over the TSB control, Agr-I reporter [3] | -fold activation over the TSB control, Agr-II reporter [4]
iAIP-I: intein-generated S. aureus AIP-I thiolactone peptide with an additional N-terminal methionine (MYSTCDFIM) (not fully specified (bridges); also: thiolactone, places not given here) | did not inhibit quorum-sensing | inhibited the quorum-sensing response in strain AH430 in a dose-dependent manner; also recorded: did inhibit activity | neither sample inhibited the Agr response | neither sample inhibited the Agr response | inhibited | 3.0 -fold | –
iAIP-II: intein-generated S. aureus AIP-II thiolactone peptide (GVNACSSLF), N-terminal methionine completely removed (not fully specified (bridges); also: thiolactone, places not given here) | inhibited quorum-sensing | – | – | – | inhibited quorum-sensing | – | 3.8 -fold
